Values quoted from earlier work in patent publication US20030216635A1, “Method and system for monitoring pancreatic pathologies” (priority 2000, published 2003).

Conditions: value substituted into equation 1.3; set up at 4.7 Tesla

## O=C([O-])CN(CCN(CC(=O)[O-])CC(=O)O)CCN(CC(=O)[O-])CC(=O)O.[Gd+3] [GdDTPA, gadolinium-diethylenetriamine-pentaacetic-acid]
  Relaxivity constant R: 4.3 mM^−1 sec ^−1
